Measurements as given in patent publication EP1067939B1, “USE OF STEROIDAL ALKALOID DERIVATIVES AS INHIBITORS OF HEDGEHOG PROTEIN SIGNALING PATHWAYS” (The Johns Hopkins University, priority 1998, dated 1999).
Where “and” joins values, the source holds several entries; their conditions need not be identical. Equal entries are not always repeated.

Experiments:
[1] = test system: endogenous Shh signaling; experiment: Midline neural plate/notochord explant assay of endogenous Shh signaling; format: cell-based, chick
[2] = target: T1, Shh (Mus musculus, UniProt Q62226); experiment: Shh processing in transiently-transfected COS-7 or QT6 cells; format: cell-based
T1 construct: expressed in transfected cells; host or cells: HK293 cells, Ecdysone-Inducible Mammalian Expression System (Invitrogen)
T1 sequence (Q62226 25-437): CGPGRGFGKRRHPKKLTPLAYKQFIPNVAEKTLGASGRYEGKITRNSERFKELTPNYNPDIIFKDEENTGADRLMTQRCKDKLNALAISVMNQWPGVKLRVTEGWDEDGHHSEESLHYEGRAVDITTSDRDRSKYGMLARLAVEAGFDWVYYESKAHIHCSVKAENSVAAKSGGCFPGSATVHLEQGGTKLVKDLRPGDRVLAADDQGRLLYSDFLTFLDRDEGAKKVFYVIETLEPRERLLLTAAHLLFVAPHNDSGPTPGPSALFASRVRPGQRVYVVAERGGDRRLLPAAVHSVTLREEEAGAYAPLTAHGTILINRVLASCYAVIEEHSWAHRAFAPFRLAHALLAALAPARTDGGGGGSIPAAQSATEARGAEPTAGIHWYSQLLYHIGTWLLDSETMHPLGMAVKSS

[3] = test system: primary human lymphoblasts; experiment: Cholesterol Biosynthesis Assay (sterol profiles of cultured cells); format: cell-based; conditions: for Percent Sterols: Cholesterol / Percent Sterols: c. Cholesta-7,24-dien-3ß-ol / Percent Sterols: e. Cholesta-8(14)-en-3ß-ol / Percent Sterols: f. 7 Dehydrocholesterol / Percent Sterols: h. C27 Sterol 1 (mw 384) / Percent Sterols: j. C27 Oxysterol 1 (mw 400) / Percent Sterols: k. C27 Oxysterol 2 (mw 400) / Total Sterols (µg/mg protein) / Percent Sterols: i. C27 Sterol 2 (mw 382) / Percent Sterols: 2. C28 Sterols / Percent Sterols: 3. C29 Sterols / Percent Sterols: d. Zymosterol: five days
[4] = test system: chick embryos; conditions: in ovo, highest concentrations tested, 50µM
Text: • 1. M. Hammerschmidt, A. Brook, A. P. McMahon, Trends Genet, 13, 14-21 (1997). • 2. C. Chiang, et al., Nature, 383,407-413 (1996). • 3. Y. Tanabe, T. M. Jessell, Science 274, 1115-1123 (1996). • 4. T. P. Yamaguchi, Curr. Opin. Genet. Dev. 7, 513-518 (1997). • 5. N. Shubin, C. Tabin, S. Carroll, Nature 388, 639-648 (1997). • 6. A. E. Oro, et al., Science 276, 817-821 (1997). • 7. M. M. Cohen, K. K. Sulik, J. Craniofac. Genet. Deve. Biol. 12, 196-244 (1992). • 8. E. Belloni, et al., Nature Genet. 14, 353-356 (1996). • 9. E. Roessler, et al., Nature Genet. 14, 357-360 (1996). • 10. J. A. Porter, et al., Nature 374, 363-366 (1995). • 11. J. A. Porter, K. E. Young, P. A. Beacy, Science 274, 255-259 (1996b). • 12. J. J. Lee, et al., Science 266, 1528-1537 (1994). • 13. J. A. Porter, et al., Cell 86, 21-34 (1996a). • 14. C. Roux, Arch. Franc. Pediatr. 21, 451-464 (1964). • 15. C. Roux, C. R. Soc. Biol. 160, 1353-1357 (1966). • 16. D. B. Dehart, L. Lanoue, G. S. Tinit, K. K. Sulik, Am J. Med. Genet. 68, 328-337 (1997). • 17. M. Kraml, J. F. Bagli, D. Dvornik, Biochem. and Biophysical Res. Com. 15, 455-457 (1964). • 18. J. Avigan, D. Steinberg, H. E. Vroman, M. J. Thompson, E. Mosettig, J. Biol. Chem 235, 3123-3126 (1960). • 19. R. B. Clayton, A. N. Nelson, I. D. Frantz Jr., J. Lipid Res. 4, 166-178 (1963). • 20. J. Aufenanger, J. Pill, K. Stegmeier, F. H. Schmidt, Horm. Metabol. Res. 17, 612-613 (1986). • 21. […] G. Popjak, A. Meenean, E. J. Parish, W. D. Nes, J. Biol. Chem 264,6230-6238 (1989). • 23. H. Yoshikawa, Brain Deve. 13, 115-120 (1991). • 24. R. I. Kelley, et al., Am. J. Of Med. Gen. 66, 478-484 (1996). • 25. G. S. Tint, et al., New England Journal of Medicine 330, 107-113 (1994). • 26. T.E. Willnow, et al., Proc. Natl. Acad. Sci USA 93, 8460-8464 (1996). • 27. S. Stefansson, D. A. Chappell, K. M. Argraves, D. K. Strickland, W. S. Argraves, J. Biol. Chem. 270, 19417-19421 (1995). • 28. W. Binns, L. F. James, J. L. Shupe, G. Everett, Am. J. Vet. Res. 24, 1164-1174 (1963). • 29. R. F. Keeler, W. Binns, Teratology 1, 5-10 (1968). • 30. P. A. Beachy, et al., CSH Symp. Quant. Biol. 62, in press (1997). • 31. […]

SMILES | Percent Sterols: b. 7 Dehydrodesmosterol [3] | Percent Sterols: Cholesterol ([3]; 1.25 µM) [%] | Percent Sterols: c. Cholesta-7,24-dien-3ß-ol ([3]; 1.25 µM) [%] | Percent Sterols: e. Cholesta-8(14)-en-3ß-ol ([3]; 1.25 µM) [%] | Percent Sterols: f. 7 Dehydrocholesterol ([3]; 1.25 µM) [%] | Total Sterols (µg/mg protein) ([3]; 1.25 µM) | Percent Sterols: Cholesterol ([3]; 2.5 µM) [%] | Percent Sterols: c. Cholesta-7,24-dien-3ß-ol ([3]; 2.5 µM) [%] | Percent Sterols: e. Cholesta-8(14)-en-3ß-ol ([3]; 2.5 µM) [%] | Percent Sterols: f. 7 Dehydrocholesterol ([3]; 2.5 µM) [%] | Total Sterols (µg/mg protein) ([3]; 2.5 µM) | Percent Sterols: 2. C28 Sterols ([3]; 5.0 µM) [%] | Percent Sterols: 3. C29 Sterols ([3]; 5.0 µM) [%] | Percent Sterols: Cholesterol ([3]; 5.0 µM) [%] | Percent Sterols: c. Cholesta-7,24-dien-3ß-ol ([3]; 5.0 µM) [%] | Percent Sterols: e. Cholesta-8(14)-en-3ß-ol ([3]; 5.0 µM) [%] | Percent Sterols: f. 7 Dehydrocholesterol ([3]; 5.0 µM) [%] | Total Sterols (µg/mg protein) ([3]; 5.0 µM) | further results
C[C@H]1CC[C@]2(NC1)O[C@H]1C[C@H]3[C@@H]4CC[C@H]5C[C@@H](O)CC[C@]5(C)[C@H]4CC[C@]3(C)[C@H]1[C@@H]2C [Tomatidine, tomatidine] | 0.8% and 0.5% | 54 | 0.9 | 6.7 | 19 | 7.8 | 42 | 0.9 | 8.9 | 14 | 7.8 | 1.6 | 3.1 | 32 | 0.7 | 8.7 | 9.8 | 5.6 | expression of HNF3β and Isl-1 ([1]; midline explants, 50 µM (Fig. 3C)): unable to block expression of HNF3β and Isl-1; Shh processing efficiency [2]: did not observe any effect; Percent Sterols: g. Lathosterol [3]: 4.9% and 4.7% and 3.6%; Percent Sterols: h. C27 Sterol 1 (mw 384) ([3]; 1.25 µM): 7.0%; Percent Sterols: j. C27 Oxysterol 1 (mw 400) ([3]; 1.25 µM): 1.0%; Percent Sterols: k. C27 Oxysterol 2 (mw 400) ([3]; 1.25 µM): 2.0%; Percent Sterols: h. C27 Sterol 1 (mw 384) ([3]; 2.5 µM): 13%; Percent Sterols: i. C27 Sterol 2 (mw 382) ([3]; 2.5 µM): 4.1%; Percent Sterols: j. C27 Oxysterol 1 (mw 400) ([3]; 2.5 µM): 2.4%; Percent Sterols: k. C27 Oxysterol 2 (mw 400) ([3]; 2.5 µM): 5.0%; Percent Sterols: h. C27 Sterol 1 (mw 384) ([3]; 5.0 µM): 20%; Percent Sterols: i. C27 Sterol 2 (mw 382) ([3]; 5.0 µM): 4.7%; Percent Sterols: j. C27 Oxysterol 1 (mw 400) ([3]; 5.0 µM): 4.5%; Percent Sterols: k. C27 Oxysterol 2 (mw 400) ([3]; 5.0 µM): 11%
CC1=C2C[C@H]3[C@@H](CC=C4C[C@@H](O)CC[C@@]43C)[C@@H]2CC[C@]12O[C@@H]1C[C@H](C)CN[C@H]1[C@H]2C [Cyclopamine, cyclopamine] | 0.8% | 87 | 0.6 | 0.9 | 2.4 | 8.4 | 76 | 0.9 | 2.5 | 4.2 | 8.5 | 1.8 | 3.1 | 68 | 1.6 | 2.7 | 6.3 | 8.3 | Higher doses that fully inhibit HNF3β and Isl-1 induction [1]: 1.0 µM; Intermediate doses that block induction of HNF3β while permitting induction of Isl-1 [1]: 0.25 µM; embryos displayed normal morphology [4]: 2/10; Percent Sterols: 2. C28 Sterols ([3]; 1.25 µM): 1.2%; Percent Sterols: 3. C29 Sterols ([3]; 1.25 µM): 0.7%; Percent Sterols: d. Zymosterol ([3]; 1.25 µM): 2.3%; Percent Sterols: 2. C28 Sterols ([3]; 2.5 µM): 1.3%; Percent Sterols: 3. C29 Sterols ([3]; 2.5 µM): 1.2%; Percent Sterols: d. Zymosterol ([3]; 2.5 µM): 4.5%; Percent Sterols: d. Zymosterol ([3]; 5.0 µM): 4.7%
